Data taken from patent US20120283175A1, “ANTIBACTERIAL COMPOSITIONS” (Achaogen, Inc., priority 2009, published 2012).
Values after ≈ are worked out from the molar mass of the structure shown. Values joined by “and” are separate entries in the source; they are usually repeats but may differ in a detail not shown here. Equal entries are not always repeated. “Also recorded” adds a separate entry of the source. Where two headings read alike, the source gives them in different places.

Tests used:
envA1 (D22) E. coli = test: MIC by broth microdilution, isogenic envA1 mutant strain; format: cell-based; details: for MIC: Strain envA1 (D21); for Fold decrease in MIC (envA+/envA1): envA+ vs envA1 E. coli
Procedure: (§1) Bacterial isolates were cultivated from −70° C. frozen stocks of the indicated strains by overnight passages at 35° C. in ambient air on Mueller-Hinton agar (Beckton Dickinson, Franklin Lakes, N.J.). Minimum Inhibitory Concentrations (MICs) were determined by the broth microdilution method in accordance with the Clinical and Laboratory Standards Institute (CLSI) guidelines. In brief, organism suspensions were adjusted to a 0.5 McFarland standard to yield a final inoculum between 3×10^5 and 7×10^5 colony-forming units (CFU)/mL. Drug dilutions and inocula were made in sterile, cation adjusted Mueller-Hinton Broth (Beckton Dickinson). An inoculum volume of 100 μL was added to wells containing 100 μL of broth with 2-fold serial dilutions of drug. All inoculated microdilution trays were incubated in ambient air at 35° C. for 18-24 hours. Following incubation, the lowest concentration of the drug that prevented visible growth (OD600 nm <0.05) was recorded as the MIC.

envA+ (D21) E. coli = test: MIC by broth microdilution, isogenic envA+ strain; format: cell-based
Procedure: as §1

E. coli ATCC25922 = test: MIC by broth microdilution, wild type strain ATCC25922; format: cell-based
Procedure: as §1

Escherichia coli = test: Checkerboard synergy assay with LpxCi-4; format: cell-based; details: combination with LpxCi-4
Source text: (§2) One classic method for assessing synergy, referred to as the checkerboard assay, is used to predict the efficacy of antibacterial agents, and is described by Scribner et. al., (Antimicrobial Agents and Chemotherapy 21(6):939-943 (1982)) and in Goodman & Gilman (The Pharmacological Basis of Therapeutics, Sixth Edition, pp. 1097-1098 (1980)). The checkerboard assay involves serial two-fold dilutions of the antibiotics individually and in combination in broth, which is then inoculated with the microorganism to be tested. After incubation, the minimum inhibitory concentration (MIC) of each drug used individually and in combination is determined (N.B., the MIC is the lowest concentration of the drug that inhibits growth in the medium). Synergism is indicated by a decrease in the MIC of each drug when used in combination. Antagonism is indicated by an increase in the MIC of either or both drugs when used in combination. Alternate methods of assessing synergy are reviewed in Greco, et al., Pharmacological Reviews 47(2):[…] (1995), incorporated herein by reference in its entirety.
(§3) Partial or full inhibition of LpxC should compromise the outer membrane and thus allow these synergizing agents to enter the cells and exert an antibacterial effect at concentrations where cells untreated with an LpxC inhibitor are unaffected. As a first step, checkerboard synergy assays for a variety of antibacterial agents were perform with several LpxC inhibitors, on several species of gram negative bacteria.
as §1
(§4) Standard checkerboard assays were performed with a combination of the indicated agents and LpxCi-4. Table 2 provides the FICI calculated according to standard techniques.

Yersinia enterocolitica = test: Checkerboard synergy assay with LpxCi-4; format: cell-based; details: combination with LpxCi-4
Source text: as §2, §3, §1, §4

Klebsiella pneumoniae = test: Checkerboard synergy assay with LpxCi-4; format: cell-based; details: combination with LpxCi-4
Source text: as §2, §3, §1, §4

Pseudomonas aeruginosa = test: Checkerboard synergy assay with LpxCi-4; format: cell-based; details: combination with LpxCi-4 (3936); Pseudomonas aeruginosa (ATCC27853 in text)
Source text: as §2, §3, §1, §4

K. pneumo. (ATCC43816) = test: Neutropenic thigh in vivo efficacy model (mice); set-up: species or system Klebsiella pneumoniae; Static Dose, LpxC cmpd / Static Dose, LpxC in combination: unit not given here
Source text: (§5) The model was run essentially as described by Craig and others (see Gudmundsson et al., “Murine Thigh Infection Model,” Handbook of Animal Models of Infection, M. A. Sande and O. Zak, Eds.; London: Academic Press, 1999, pp 137-144). Briefly, mice were rendered neutropenic prior to infection with 2 doses of cyclophosphamide, and then infected intramuscularly in the thigh with inocula of 10^3-10^5 CFU of either K. pneumo. (ATCC43816) or P. aeruginosa (ATCC27853). Antibiotics or vehicle alone as a negative control were administered twice at 2 hrs and 14 hrs post-infection. The animals were kept neutropenic for the duration of the experiment in order to minimize the effect of white blood cells on the infection such that the microbiological readout measures the in vivo interaction of drugs and bacteria. At 24 hrs post-infection, thighs were harvested, homogenized, and plated to measure the number of CFUs surviving per thigh. Thighs from a subset of animals were also harvested 2 hrs post-infection to record the CFUs present just prior to the first antibiotic treatment (pre-treatment).

[1] = test system: P. aeruginosa (ATCC27853); details: for ΔLogCFU vs 24 hr / Log CFU Mean: 24 hr; for Log CFU Mean: n=5; for in vivo synergy with erythromycin: erythromycin 60 mg/kg
Source text: as §5
This table focuses on the sensitive part of the LpxCi-4 dose response curve (30 mg/kg) by examining the mean log CFU at 0 or 24 hours, as well as the log change in CFU at 24 hours relative to zero hours (“ΔLogCFU vs […]”). Data is given for animals treated with vehicle, LpxCi-4 at 30 mg/kg, a second agent alone at the indicated doses or the combination of LpxCi-4 at 30 mg/kg plus the second agent at the indicated dose. The standard errors for each measurement are also given (n=5 animals/group). By comparing the observed drop in CFU of the combination with the sum of the drop in CFU associated with each of the two agents given separately, one can determine whether the combination is, in fact, synergistic in vivo.

[2] = Pharmacokinetic studies of LpxCi-4 alone or in the presence of vancomycin; format: in vivo; details: for AUC / Cmax / Tmax / half-life: in vivo, 10 mg/kg
Procedure: This would result in a lower static dose for the LpxC inhibitor and apparent synergy. In order to address this, pharmacokinetic studies of LpxCi-4 either alone or in the presence of vancomycin at 220 mg/kg were performed. […] The half-life (HL_Lambda_z), time to maximum concentration (Tmax), maximal concentration (Cmax), and area under the concentration-time curve (AUC) for LpxCi-4 are provided.

gram negative bacteria = test: Checkerboard synergy score at fractions of the antibacterial agent's MIC, with LpxCi-1, -2, -3; format: cell-based; set-up: scale not given here
Procedure: as §3, §1

[3] = test system: P. aeruginosa (ATCC27853); test: MIC on P. aeruginosa ATCC27853; format: cell-based; details: Pseudomonas aeruginosa, ATCC 27853 / ATCC 278534; on ATCC278534 as printed
Procedure: as §1
This table focuses on the sensitive part of the LpxCi-4 dose response curve (30 mg/kg) by examining the mean log CFU at 0 or 24 hours, as well as the log change in CFU at 24 hours relative to zero hours (“ΔLogCFU vs 24 hr”). Data is given for animals treated with vehicle, LpxCi-4 at 30 mg/kg, a second agent alone at the indicated doses or the combination of LpxCi-4 at 30 mg/kg plus the second agent at the indicated dose. […]

[4] = strain 43816, combination agent Rifampin
[5] = first block of Table 5, mg/kg/day b.i.d.: 3936 30, Rif. 30, Azith. 50
[6] = second block of Table 5, mg/kg/day b.i.d.: 3936 30, Eryth. 60, Dapto. 3, Oxacil. 100
[7] = strain 27853, combination agent Rifampin
[8] = strain 27853, combination agent Vanco
[9] = LpxCi-4 (10 mg/kg) + vancomycin (220 mg/kg)

SMILES: CCCCCCCCCCNCCN[C@@]1(C)C[C@H](O[C@H]2[C@H](Oc3c4cc5cc3Oc3ccc(cc3Cl)[C@@H](O)[C@@H](NC(=O)[C@@H](CC(C)C)NC)C(=O)N[C@@H](CC(N)=O)C(=O)N[C@H]5C(=O)N[C@H]3C(=O)N[C@H](C(=O)N[C@H](C(=O)O)c5cc(O)c(CNCP(=O)(O)O)c(O)c5-c5cc3ccc5O)[C@H](O)c3ccc(c(Cl)c3)O4)O[C@H](CO)[C@@H](O)[C@@H]2O)O[C@@H](C)[C@H]1O [Telavancin, telavancin]
- MIC (envA1 (D22) E. coli): 16 µg/mL (≈ 9.11 µM)
- Fold decrease in MIC (envA+/envA1) (envA1 (D22) E. coli): ≧8
- MIC (envA+ (D21) E. coli): > 128 µg/mL
- MIC (E. coli ATCC25922): > 128 µg/mL
- FICI index (Escherichia coli): no
- FICI index (Yersinia enterocolitica): ≦0.5
- FICI index (Klebsiella pneumoniae): ≦0.31
- FICI index (Pseudomonas aeruginosa): no effect

SMILES: CC(C)(N)[C@H](NC(=O)c1ccc(C#CC#CC2CC2)cc1)C(=O)NO [LpxCi-4, (S)—N-(3-amino-1-(hydroxyamino)-3-methyl-1-oxobutan-2-yl)-4-(cyclopropylbuta-1,3-diynyl)benzamide]
- MIC (envA1 (D22) E. coli): ≦0.004
- Fold decrease in MIC (envA+/envA1) (envA1 (D22) E. coli): ≧4
- in vivo synergy with rifampin (K. pneumo. (ATCC43816); bacterial strain ATCC43816): in vivo synergy
- in vivo synergy with vancomycin (K. pneumo. (ATCC43816); bacterial strain ATCC43816): in vivo synergy
- Static Dose, LpxC cmpd (K. pneumo. (ATCC43816); strain 43816, LpxC compound alone): 36 and 33
- Fold Shift Static Dose (K. pneumo. (ATCC43816); [4]): 4x
- Static Dose, LpxC in combination (K. pneumo. (ATCC43816); [4]): 9
- Fold Shift Static Dose (K. pneumo. (ATCC43816); strain 43816, combination agent Vanco): 6.6x
- Static Dose, LpxC in combination (K. pneumo. (ATCC43816); strain 43816, combination agent Vanco (440 mg/kg/day)): 5
- shift in static dose (K. pneumo. (ATCC43816); with rifampin, K. pneumoniae ATCC43816): 4 fold
- MIC (envA+ (D21) E. coli): 0.015 µg/mL (≈ 0.0442 µM)
- ΔLogCFU vs 24 hr [1, 5]: −1.57
- Log CFU Mean [1, 5]: 6.17
- ΔLogCFU vs 24 hr [1, 6]: −0.81
- Log CFU Mean [1, 6]: 6.83
- in vivo synergy with daptomycin ([1]; bacterial strain ATCC27853): does not exhibit in vivo synergy
- in vivo synergy with rifampin ([1]; bacterial strain ATCC27853): in vivo synergy
- in vivo synergy with vancomycin ([1]; bacterial strain ATCC27853): in vivo synergy
- in vivo synergy with erythromycin ([1]; bacterial strain ATCC27853): modest in vivo synergy
- in vivo synergy with erythromycin ([1]; bacterial strain ATCC27853, listed as LPxCi-4): only a very modest shift in the dose response curve
- in vivo synergy with daptomycin ([1]; bacterial strain ATCC27853, listed as 3936): no measurable in vivo synergy
- drop in CFU relative to vehicle ([1]; each agent at 30 mg/kg): 1.57 log
- Static Dose, LpxC cmpd ([1]; strain 27853, LpxC compound alone): 60 and 42 and 50
- Static Dose, LpxC in combination ([1]; strain 27853, combination agent Daptomycin): 50
- Fold Shift Static Dose ([1]; strain 27853, combination agent Erythromycin): <1.5x
- Static Dose, LpxC in combination ([1]; strain 27853, combination agent Erythromycin (60 mg/kg in text)): 40
- Static Dose, LpxC in combination ([1]; strain 27853, combination agent Oxacillin): 50
- Fold Shift Static Dose [1, 7]: 1.9x
- Static Dose, LpxC in combination [1, 7]: 22
- Fold Shift Static Dose [1, 8]: 2.4x
- Static Dose, LpxC in combination [1, 8]: 25
- shift in static dose ([1]; with rifampin, P. aeruginosa ATCC27853): 2 fold
- MIC (E. coli ATCC25922): 0.015 µg/mL (≈ 0.0442 µM)
- AUC [2, 9]: 6870 ng·h/mL
- Cmax [2, 9]: 2630 ng/mL
- Tmax [2, 9]: 15 min
- half-life [2, 9]: 196 min
- AUC ([2]; LpxCi-4 (10 mg/kg) alone): 6030 ng·h/mL
- Cmax ([2]; LpxCi-4 (10 mg/kg) alone): 2200 ng/mL
- Tmax ([2]; LpxCi-4 (10 mg/kg) alone): 30 min
- half-life ([2]; LpxCi-4 (10 mg/kg) alone): 158 min
- PK / AUC of LpxCi-4 in the presence vs absence of vancomycin ([2]; vancomycin at 220 mg/kg, 220 mg/kg): not significantly affected; also recorded: essentially identical

SMILES: CC[C@H]1OC(=O)[C@H](C)[C@@H](O[C@H]2C[C@@](C)(OC)[C@@H](O)[C@H](C)O2)[C@H](C)[C@@H](O[C@@H]2O[C@H](C)C[C@H](N(C)C)[C@H]2O)[C@](C)(O)C[C@@H](C)CN(C)[C@H](C)[C@@H](O)[C@]1(C)O [Azithromycin, azithromycin]
- Synergy Score (gram negative bacteria; with LpxCi-1, antibacterial agent at 1/16 MIC): 0.10
- Synergy Score (gram negative bacteria; with LpxCi-1, antibacterial agent at 1/64 MIC): 0.13
- Synergy Score (gram negative bacteria; with LpxCi-1, antibacterial agent at ¼ MIC): 0.26
- Synergy Score (gram negative bacteria; with LpxCi-2, antibacterial agent at 1/16 MIC): 1.06
- Synergy Score (gram negative bacteria; with LpxCi-2, antibacterial agent at ¼ MIC): 0.58
- Synergy Score (gram negative bacteria; with LpxCi-3, antibacterial agent at 1/16 MIC): 0.40
- Synergy Score (gram negative bacteria; with LpxCi-3, antibacterial agent at 1/64 MIC): 1.02
- Synergy Score (gram negative bacteria; with LpxCi-3, antibacterial agent at ¼ MIC): 0.29
- in vivo synergy with LpxC inhibitors ([1]; P. aeruginosa (ATCC27853), summary): modest but potentially useful in vivo synergy
- MIC [3]: > 16 µg/mL
- FICI index (Yersinia enterocolitica): 0.09
- FICI index (Klebsiella pneumoniae): 0.14
- FICI index (Pseudomonas aeruginosa): 0.31

SMILES: CO[C@@H]1[C@@H](OC(N)=O)[C@@H](O)[C@H](Oc2ccc3c(O)c(NC(=O)c4ccc(O)c(CC=C(C)C)c4)c(=O)oc3c2C)OC1(C)C [Novobiocin, novobiocin]
- FICI index (Escherichia coli): ≦0.25
- FICI index (Yersinia enterocolitica): ≦0.63
- FICI index (Klebsiella pneumoniae): ≦0.38
- FICI index (Pseudomonas aeruginosa): no effect
